Tests used:
human PDE4B1 [1] = biological target: T1, human PDE4B1 (Homo sapiens, UniProt Q07343); experiment: cAMP HTRF assay to determine the activity of hPDE4B1; assay type: biochemical; settings: inhibition of PDE4B at a test concentration of 1 μM
T1 construct: host or cells: Sf9 cells
Outline: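 […], using HTRF quantitation of residual cAMP after 1 mM IBMX stop and 60 min detection. Enzyme was Sf9-expressed human PDE4B1 incubated 30 min at room temperature with 40 nM final cAMP at pH 7.8.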

human PDE4B1 [2] = biological target: T1, human PDE4B1; experiment: TR-FRET assay using the LANCE Ultra cAMP kit to determine the activity of hPDE4B1; assay type: biochemical; settings: read-out: Inhibition in % (inhibition of PDE4B); for inhibition at 1 µM: test concentration 1 μM
Outline: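 Sf9-expressed recombinant human PDE4B1 (0.96 U) hydrolyses 500 nM cAMP for 30 minutes at room temperature in 50 mM Tris-HCl, 50 mM MgCl2, 5 mM DTT, pH 8.5. The reaction is stopped with IBMX, and residual cAMP is measured by TR-FRET (665/620 ratio). IC50 comes from ten concentrations.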

T1 sequence (Q07343 whole entry): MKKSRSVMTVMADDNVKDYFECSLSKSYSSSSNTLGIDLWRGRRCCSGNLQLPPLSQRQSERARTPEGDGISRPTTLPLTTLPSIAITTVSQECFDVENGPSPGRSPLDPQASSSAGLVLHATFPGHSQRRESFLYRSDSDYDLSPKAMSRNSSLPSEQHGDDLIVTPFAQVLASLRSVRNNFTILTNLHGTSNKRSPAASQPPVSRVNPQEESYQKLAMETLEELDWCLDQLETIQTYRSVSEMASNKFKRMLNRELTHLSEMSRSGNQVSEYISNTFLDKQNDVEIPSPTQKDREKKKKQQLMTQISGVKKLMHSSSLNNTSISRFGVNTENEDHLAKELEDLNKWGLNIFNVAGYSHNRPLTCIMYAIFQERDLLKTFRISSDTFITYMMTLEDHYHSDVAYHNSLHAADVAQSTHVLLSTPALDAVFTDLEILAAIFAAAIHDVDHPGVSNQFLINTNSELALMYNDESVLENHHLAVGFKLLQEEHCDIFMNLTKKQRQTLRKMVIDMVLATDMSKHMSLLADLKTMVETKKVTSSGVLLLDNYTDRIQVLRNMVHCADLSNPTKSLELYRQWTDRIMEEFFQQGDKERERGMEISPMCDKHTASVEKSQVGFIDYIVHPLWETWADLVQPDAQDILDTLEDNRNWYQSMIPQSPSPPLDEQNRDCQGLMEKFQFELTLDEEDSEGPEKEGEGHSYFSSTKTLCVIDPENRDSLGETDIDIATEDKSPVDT

inhibition at 1 µM (human PDE4B1 [1]) [%]	melting point [°C]	inhibition at 1 µM (human PDE4B1 [2]) [%]	inhibition at 10 µM (human PDE4B1 [2]; test concentration 10 μM (marked in cell)) [%]	SMILES
104	193 to 196	–	–	C[S+]([O-])c1cn(-c2ncc(-c3cccc(CO)c3)cn2)c2cc(C(=O)N3CCOCC3)ccc12 (centres unmarked) [Example 188, (1-(5-(3-(Hydroxymethyl)phenyl)pyrimidin-2-yl)-3-(methylsulfinyl)-1H-indol-6-yl)(morpholino)methanone]
109	162 to 165	–	–	CCc1cccc(-c2cnc(-n3cc([S+](C)[O-])c4ccc(C(=O)N5CCOCC5)cc43)nc2)c1 (centres unmarked) [Example 189, (1-(5-(3-Ethylphenyl)pyrimidin-2-yl)-3-(methylsulfinyl)-1H-indol-6-yl)(morpholino)methanone]
90	256 to 258	–	–	COC(=O)c1ccc(-c2cnc(-n3cc([S+](C)[O-])c4ccc(C(=O)N5CCOCC5)cc43)nc2)cc1 (centres unmarked) [Example 190, Methyl 4-(2-(3-(methylsulfinyl)-6-(morpholine-4-carbonyl)-1H-indol-1-yl)pyrimidin-5-yl)benzoate]
85	219 to 223	–	–	C[S+]([O-])c1cn(-c2ncc(-c3ccc(C(=O)O)cc3)cn2)c2cc(C(=O)N3CCOCC3)ccc12 (centres unmarked) [Example 191, 4-(2-(3-(Methylsulfinyl)-6-(morpholine-4-carbonyl)-1H-indol-1-yl)pyrimidin-5-yl)benzoic acid]
112	217 to 220	–	–	COC(=O)c1cccc(-c2cnc(-n3cc([S+](C)[O-])c4ccc(C(=O)N5CCOCC5)cc43)nc2)c1 (centres unmarked) [Example 192, Methyl 3-(2-(3-(methylsulfinyl)-6-(morpholine-4-carbonyl)-1H-indol-1-yl)pyrimidin-5-yl)benzoate]
91	230 to 235	–	–	C[S+]([O-])c1cn(-c2ncc(-c3cccc(C(=O)O)c3)cn2)c2cc(C(=O)N3CCOCC3)ccc12 (centres unmarked) [Example 193, 3-(2-(3-(Methylsulfinyl)-6-(morpholine-4-carbonyl)-1H-indol-1-yl)pyrimidin-5-yl)benzoic acid]
92	211 to 213	–	–	C[S+]([O-])c1cn(-c2ncc(-c3cccc(Cl)c3)cn2)c2cc(C(=O)N3CCOCC3)ccc12 (centres unmarked) [Example 194, (1-(5-(3-Chlorophenyl)pyrimidin-2-yl)-3-(methylsulfinyl)-1H-indol-6-yl)(morpholino)methanone]
–	253 to 256	95	–	C[S+]([O-])c1cn(-c2ncc(-c3cc(C#N)cs3)cn2)c2cc(C(=O)N3CCOCC3)ccc12 (centres unmarked) [Example 195, 5-(2-(3-(Methylsulfinyl)-6-(morpholine-4-carbonyl)-1H-indol-1-yl)pyrimidin-5-yl)thiophene-3-carbonitrile]
–	302 to 305	96	–	C[S+]([O-])c1cn(-c2ncc(-c3cc(C(N)=O)cs3)cn2)c2cc(C(=O)N3CCOCC3)ccc12 (centres unmarked) [Example 196, 5-(2-(3-(Methylsulfinyl)-6-(morpholine-4-carbonyl)-1H-indol-1-yl)pyrimidin-5-yl)thiophene-3-carboxamide]
–	232 to 235	96	–	Cc1csc(-c2cnc(-n3cc([S+](C)[O-])c4ccc(C(=O)N5CCOCC5)cc43)nc2)c1 (centres unmarked) [Example 197]
114	120 to 123	–	–	Cc1ccc(F)c(-c2cnc(-n3cc([S+](C)[O-])c4ccc(C(=O)N5CCOCC5)cc43)nc2)c1 (centres unmarked) [Example 198]
99	288 to 290	–	–	C[S+]([O-])c1cn(-c2ncc(-c3ccc(C(N)=O)cn3)cn2)c2cc(C(=O)N3CCOCC3)ccc12 (centres unmarked) [Example 199, 6-(2-(3-(Methylsulfinyl)-6-(morpholine-4-carbonyl)-1H-indol-1-yl)pyrimidin-5-yl)nicotinamide]
87	244 to 248	–	–	C[S+]([O-])c1cn(-c2ncc(-c3ccc(F)cn3)cn2)c2cc(C(=O)N3CCOCC3)ccc12 (centres unmarked) [Example 200, (1-(5-(5-Fluoropyridin-2-yl)pyrimidin-2-yl)-3-(methylsulfinyl)-1H-indol-6-yl)(morpholino)methanone]
81	222 to 225	–	–	C[S+]([O-])c1cn(-c2ncc(-c3ncccc3F)cn2)c2cc(C(=O)N3CCOCC3)ccc12 (centres unmarked) [Example 201, (1-(5-(3-Fluoropyridin-2-yl)pyrimidin-2-yl)-3-(methylsulfinyl)-1H-indol-6-yl)(morpholino)methanone]
94	303 to 306	–	–	C[S+]([O-])c1cn(-c2ncc(-c3cc(C(N)=O)ccn3)cn2)c2cc(C(=O)N3CCOCC3)ccc12 (centres unmarked) [Example 202, 2-(2-(3-(Methylsulfinyl)-6-(morpholine-4-carbonyl)-1H-indol-1-yl)pyrimidin-5-yl)isonicotinamide]
–	273 to 276	67	–	C[S+]([O-])c1cn(-c2ncc(-c3nc(C#N)cs3)cn2)c2cc(C(=O)N3CCOCC3)ccc12 (centres unmarked) [Example 203, 2-(2-(3-(Methylsulfinyl)-6-(morpholine-4-carbonyl)-1H-indol-1-yl)pyrimidin-5-yl)thiazole-4-carbonitrile]
–	286 to 288	82	–	C[S+]([O-])c1cn(-c2ncc(-c3nc(C(N)=O)cs3)cn2)c2cc(C(=O)N3CCOCC3)ccc12 (centres unmarked) [Example 204, 2-(2-(3-(Methylsulfinyl)-6-(morpholine-4-carbonyl)-1H-indol-1-yl)pyrimidin-5-yl)thiazole-4-carboxamide]
–	247 to 249	93	–	Cc1csc(-c2cnc(-n3cc([S+](C)[O-])c4ccc(C(=O)N5CCOCC5)cc43)nc2)n1 (centres unmarked) [Example 205, (3-(Methylsulfinyl)-1-(5-(4-methylthiazol-2-yl)pyrimidin-2-yl)-1H-indol-6-yl)(morpholino)methanone]
–	257 to 260	85	–	Cc1cnc(-c2cnc(-n3cc([S+](C)[O-])c4ccc(C(=O)N5CCOCC5)cc43)nc2)s1 (centres unmarked) [Example 206, (3-(Methylsulfinyl)-1-(5-(5-methylthiazol-2-yl)pyrimidin-2-yl)-1H-indol-6-yl)(morpholino)methanone]
–	286 to 289	82	–	C[S+]([O-])c1cn(-c2ncc(-c3ncc(C(N)=O)s3)cn2)c2cc(C(=O)N3CCOCC3)ccc12 (centres unmarked) [Example 208, 2-(2-(3-(Methylsulfinyl)-6-(morpholine-4-carbonyl)-1H-indol-1-yl)pyrimidin-5-yl)thiazole-5-carboxamide]
101	293 to 297	–	–	C[S+]([O-])c1cn(-c2ncc(-c3cc(N)ccn3)cn2)c2cc(C(=O)N3CCOCC3)ccc12 (centres unmarked) [Example 209, 2-(1-(5-(4-Aminopyridin-2-yl)pyrimidin-2-yl)-3-(methylsulfinyl)-1H-indol-6-yl)(morpholino)methanone]
96	213 to 217	–	–	CN(C)c1ccnc(-c2cnc(-n3cc([S+](C)[O-])c4ccc(C(=O)N5CCOCC5)cc43)nc2)c1 (centres unmarked) [Example 210, (1-(5-(4-(Dimethylamino)pyridin-2-yl)pyrimidin-2-yl)-3-(methylsulfinyl)-1H-indol-6-yl)(morpholino)methanone]
85	235 to 237	–	–	C[S+]([O-])c1cn(-c2ncc(-c3nccs3)cn2)c2cc(C(=O)N3CCOCC3)ccc12 (centres unmarked) [Example 211, (3-(Methylsulfinyl)-1-(5-(thiazol-2-yl)pyrimidin-2-yl)-1H-indol-6-yl)(morpholino)methanone]
33	278 to 282	–	–	C[S+]([O-])c1cn(-c2ncc(-c3ccnnc3)cn2)c2cc(C(=O)N3CCOCC3)ccc12 (centres unmarked) [Example 212, (3-(Methylsulfinyl)-1-(5-(pyridazin-4-yl)pyrimidin-2-yl)-1H-indol-6-yl)(morpholino)methanone]
–	206 to 210	87	–	C[S+]([O-])c1cn(-c2ncc(-c3ccccc3F)cn2)c2cc(C(=O)N3CCO[C@@H](CO)C3)ccc12 (stereo partly drawn) [Example 219, (1-(5-(2-Fluorophenyl)pyrimidin-2-yl)-3-(methylsulfinyl)-1H-indol-6-yl)((R)-2-(hydroxymethyl)morpholino)methanone]
–	194 to 198	93	–	C[S+]([O-])c1cn(-c2ncc(-c3ccccc3F)cn2)c2cc(C(=O)N3CCO[C@H](CO)C3)ccc12 (stereo partly drawn) [Example 220, (1-(5-(2-Fluorophenyl)pyrimidin-2-yl)-3-(methylsulfinyl)-1H-indol-6-yl)((S)-2-(hydroxymethyl)morpholino)methanone]
–	88 to 92	94	–	CN(CCN)C(=O)c1ccc2c([S+](C)[O-])cn(-c3ncc(-c4ccccc4F)cn3)c2c1 (centres unmarked) [Example 221, N-(2-Aminoethyl)-1-(5-(2-fluorophenyl)pyrimidin-2-yl)-N-methyl-3-(methylsulfinyl)-1H-indole-6-carboxamide]
–	160 to 163	–	102	CCc1ccnc(-c2cnc(-n3cc([S+](C)[O-])c4ccc(C(=O)N5CC[C@@H](N)C5)cc43)nc2)c1 (stereo partly drawn) [Example 337, ((R)-3-Aminopyrrolidin-1-yl)(1-(5-(4-ethylpyridin-2-yl)pyrimidin-2-yl)-3-(methylsulfinyl)-1H-indol-6-yl)methanone]

Reference: patent US9315490B2, “2,5-substituted pyrimidines” (Grünenthal GmbH, priority 2014, dated 2016)
